Source: ChEMBL document CHEMBL4392854, “Discovery, synthesis, biological evaluation and molecular docking study of (R)-5-methylmellein and its analogs as selective monoamine oxidase A inhibitors” (Bioorg Med Chem, 2019)

Tests used:
[1] = target: T1, Amine oxidase [flavin-containing] A (Homo sapiens, UniProt P21397); assay: Tight-binding competitive inhibition of human recombinant MAOA using kynuramine as substrate incubated for 10 mins by UPLC-ESI-MS/MS analysis based Lineweaver-Burk plot kinetic analysis
T1 sequence (P21397 whole entry): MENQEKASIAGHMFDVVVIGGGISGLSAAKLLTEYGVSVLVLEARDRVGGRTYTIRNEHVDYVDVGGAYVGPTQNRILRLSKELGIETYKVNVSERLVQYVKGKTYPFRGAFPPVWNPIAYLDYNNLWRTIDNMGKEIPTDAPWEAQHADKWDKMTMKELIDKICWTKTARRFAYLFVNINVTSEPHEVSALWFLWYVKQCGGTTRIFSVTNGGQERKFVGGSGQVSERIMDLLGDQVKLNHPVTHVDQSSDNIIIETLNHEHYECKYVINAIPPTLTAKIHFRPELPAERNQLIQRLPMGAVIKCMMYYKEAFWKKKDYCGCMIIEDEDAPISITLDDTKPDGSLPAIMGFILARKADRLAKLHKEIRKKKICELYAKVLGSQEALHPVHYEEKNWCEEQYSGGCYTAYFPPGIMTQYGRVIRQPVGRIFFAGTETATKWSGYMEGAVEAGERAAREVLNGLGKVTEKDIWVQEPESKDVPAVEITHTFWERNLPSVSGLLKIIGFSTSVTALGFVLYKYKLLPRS

[2] = target: T1, Amine oxidase [flavin-containing] A; assay: Tight binding competitive inhibition of human recombinant MAOA using 50 uM to 1000 uM kynuramine as substrate incubated for 10 mins by UPLC-ESI-MS/MS analysis based kinetic analysis
[3] = target: T1, Amine oxidase [flavin-containing] A; assay: Inhibition of human recombinant MAOA using kynuramine as substrate incubated for 10 mins by UPLC-ESI-MS/MS analysis
[4] = species on record: Homo sapiens; assay: Selectivity index, ratio of IC50 for human recombinant MAOB to IC50 for human recombinant MAOA
[5] = target: T1, Amine oxidase [flavin-containing] A; assay: Inhibition of human recombinant MAOA using kynuramine as substrate incubated for 10 mins by UPLC-ESI-MS/MS analysis based Eadie-Hofstee plot analysis
[6] = target: T2, Amine oxidase [flavin-containing] B (Homo sapiens, UniProt P27338); assay: Inhibition of human recombinant MAOB using kynuramine as substrate incubated for 10 mins by UPLC-ESI-MS/MS analysis
T2 sequence (P27338 whole entry): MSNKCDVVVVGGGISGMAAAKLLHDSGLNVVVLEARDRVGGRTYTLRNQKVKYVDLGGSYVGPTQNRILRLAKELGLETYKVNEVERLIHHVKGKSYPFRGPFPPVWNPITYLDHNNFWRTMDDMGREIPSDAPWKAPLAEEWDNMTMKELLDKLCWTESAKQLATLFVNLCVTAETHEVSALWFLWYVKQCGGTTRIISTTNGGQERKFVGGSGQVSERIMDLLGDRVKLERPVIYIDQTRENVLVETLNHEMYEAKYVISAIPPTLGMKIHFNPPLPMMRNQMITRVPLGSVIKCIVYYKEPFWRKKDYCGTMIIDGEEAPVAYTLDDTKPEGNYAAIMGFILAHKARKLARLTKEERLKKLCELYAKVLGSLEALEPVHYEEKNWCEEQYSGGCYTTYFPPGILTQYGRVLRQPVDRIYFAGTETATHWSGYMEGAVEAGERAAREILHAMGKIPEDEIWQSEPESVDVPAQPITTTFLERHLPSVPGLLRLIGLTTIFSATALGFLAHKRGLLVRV

[7] = target: T1, Amine oxidase [flavin-containing] A; assay: Inhibition of human recombinant MAOA using kynuramine as substrate incubated for 10 mins by UPLC-ESI-MS/MS analysis based Michaelis-Menten plot kinetic analysis

`CC[C@@H]1Cc2c(C)cc(-c3cncnc3)c(O)c2C(=O)O1` was tested, and the “inhibition (INH)” value [1] was “Active”, the “inhibition (INH)” value [2] was “Active” and the IC50 [3] was 60 nM. For the same compound, the Ratio IC50 [4] was > 830, the “inhibition (INH)” value [5] was “Active” and the IC50 [6] was > 50000 nM. The “inhibition (INH)” value [7] was “Active”.
